Experimental data: ChEMBL document CHEMBL4507305, “Data for DCP probe TP-024” (2021)

Key:
[1] = molecular target: Proto-oncogene tyrosine-protein kinase ROS (Homo sapiens) (UniProt P08922); settings: Compound concentration 1000.0 nM
[2] = molecular target: Mitogen-activated protein kinase kinase kinase 5 (Homo sapiens) (UniProt Q99683); settings: Compound concentration 1000.0 nM
[3] = molecular target: Insulin receptor-related protein (Homo sapiens) (UniProt P14616); settings: Compound concentration 1000.0 nM
[4] = molecular target: STE20-like serine/threonine-protein kinase (Homo sapiens) (UniProt Q9H2G2); settings: Compound concentration 1000.0 nM
[5] = tested on: Receptor-type tyrosine-protein kinase FLT3 (Homo sapiens), P36888 [UNDEFINED MUTATION]; settings: Compound concentration 1000.0 nM
Chain of Receptor-type tyrosine-protein kinase FLT3 (Homo sapiens), P36888 [UNDEFINED MUTATION] (P36888 whole entry, looked up, change not shown): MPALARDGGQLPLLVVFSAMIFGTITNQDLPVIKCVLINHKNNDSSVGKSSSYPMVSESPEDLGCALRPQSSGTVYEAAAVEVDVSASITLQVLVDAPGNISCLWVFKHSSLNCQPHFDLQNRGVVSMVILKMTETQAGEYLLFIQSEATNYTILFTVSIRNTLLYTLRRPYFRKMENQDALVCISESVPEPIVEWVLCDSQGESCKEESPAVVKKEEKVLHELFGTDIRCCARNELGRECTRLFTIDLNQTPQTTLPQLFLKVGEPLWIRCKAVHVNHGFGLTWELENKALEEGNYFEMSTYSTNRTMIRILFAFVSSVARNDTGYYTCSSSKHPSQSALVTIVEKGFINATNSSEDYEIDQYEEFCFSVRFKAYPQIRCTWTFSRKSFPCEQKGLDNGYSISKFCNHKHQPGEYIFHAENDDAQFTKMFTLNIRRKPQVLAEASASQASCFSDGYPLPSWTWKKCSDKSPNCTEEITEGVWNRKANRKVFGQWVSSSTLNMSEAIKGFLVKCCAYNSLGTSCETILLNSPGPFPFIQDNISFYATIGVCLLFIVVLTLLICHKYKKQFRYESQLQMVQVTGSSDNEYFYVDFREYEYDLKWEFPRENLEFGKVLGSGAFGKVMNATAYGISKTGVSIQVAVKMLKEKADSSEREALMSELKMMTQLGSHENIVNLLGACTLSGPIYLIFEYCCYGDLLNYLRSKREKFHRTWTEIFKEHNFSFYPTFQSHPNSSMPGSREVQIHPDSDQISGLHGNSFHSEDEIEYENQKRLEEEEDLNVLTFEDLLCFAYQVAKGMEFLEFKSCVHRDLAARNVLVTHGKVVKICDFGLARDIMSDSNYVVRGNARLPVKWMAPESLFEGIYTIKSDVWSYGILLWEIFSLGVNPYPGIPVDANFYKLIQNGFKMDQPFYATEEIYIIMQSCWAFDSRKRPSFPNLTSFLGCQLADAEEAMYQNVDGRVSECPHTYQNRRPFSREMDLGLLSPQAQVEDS

[6] = molecular target: G protein-coupled receptor kinase 4 (Homo sapiens) (UniProt P32298); settings: Compound concentration 1000.0 nM
Chain of G protein-coupled receptor kinase 4 (Homo sapiens) (P32298 whole entry, looked up): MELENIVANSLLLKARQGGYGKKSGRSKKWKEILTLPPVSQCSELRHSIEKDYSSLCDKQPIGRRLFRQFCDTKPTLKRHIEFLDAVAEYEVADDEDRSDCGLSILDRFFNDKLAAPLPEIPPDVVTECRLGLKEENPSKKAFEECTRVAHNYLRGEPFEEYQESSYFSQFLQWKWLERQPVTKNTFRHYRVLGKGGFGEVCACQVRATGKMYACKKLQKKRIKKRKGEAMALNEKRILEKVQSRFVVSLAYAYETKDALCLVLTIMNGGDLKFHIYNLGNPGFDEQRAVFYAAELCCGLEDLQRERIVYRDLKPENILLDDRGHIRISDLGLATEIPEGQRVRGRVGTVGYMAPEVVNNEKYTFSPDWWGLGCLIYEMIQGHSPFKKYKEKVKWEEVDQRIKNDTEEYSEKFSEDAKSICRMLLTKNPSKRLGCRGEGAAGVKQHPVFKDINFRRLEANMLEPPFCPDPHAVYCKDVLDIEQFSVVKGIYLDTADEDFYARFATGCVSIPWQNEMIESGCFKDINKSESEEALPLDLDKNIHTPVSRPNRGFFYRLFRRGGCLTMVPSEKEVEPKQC

[7] = molecular target: Tyrosine-protein kinase Tec (Homo sapiens) (UniProt P42680); settings: Compound concentration 1000.0 nM
[8] = molecular target: Serine/threonine-protein kinase pim-2 (Homo sapiens) (UniProt Q9P1W9); settings: Compound concentration 1000.0 nM
Chain of Serine/threonine-protein kinase pim-2 (Homo sapiens) (Q9P1W9 whole entry, looked up): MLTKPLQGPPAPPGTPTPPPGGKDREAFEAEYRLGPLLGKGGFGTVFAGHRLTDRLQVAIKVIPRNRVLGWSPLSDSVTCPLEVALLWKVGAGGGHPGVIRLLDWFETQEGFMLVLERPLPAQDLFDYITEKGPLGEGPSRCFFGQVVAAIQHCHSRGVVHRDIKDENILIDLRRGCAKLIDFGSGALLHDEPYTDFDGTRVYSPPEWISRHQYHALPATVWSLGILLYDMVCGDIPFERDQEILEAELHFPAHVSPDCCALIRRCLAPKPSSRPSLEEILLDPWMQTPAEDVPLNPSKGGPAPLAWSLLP

[9] = molecular target: Tyrosine-protein kinase JAK1 (Homo sapiens) (UniProt P23458); settings: Compound concentration 1000.0 nM
[10] = molecular target: Mitogen-activated protein kinase 1 (Homo sapiens) (UniProt P28482); settings: Compound concentration 1000.0 nM
[11] = molecular target: Serine/threonine-protein kinase PLK4 (Homo sapiens) (UniProt O00444); settings: Compound concentration 1000.0 nM
[12] = molecular target: Eukaryotic translation initiation factor 2-alpha kinase 1 (Homo sapiens) (UniProt Q9BQI3); settings: Compound concentration 1000.0 nM
[13] = molecular target: Cyclin-dependent kinase 4 (Homo sapiens) (UniProt P11802); settings: Compound concentration 1000.0 nM
Chain of Cyclin-dependent kinase 4 (Homo sapiens) (P11802 whole entry): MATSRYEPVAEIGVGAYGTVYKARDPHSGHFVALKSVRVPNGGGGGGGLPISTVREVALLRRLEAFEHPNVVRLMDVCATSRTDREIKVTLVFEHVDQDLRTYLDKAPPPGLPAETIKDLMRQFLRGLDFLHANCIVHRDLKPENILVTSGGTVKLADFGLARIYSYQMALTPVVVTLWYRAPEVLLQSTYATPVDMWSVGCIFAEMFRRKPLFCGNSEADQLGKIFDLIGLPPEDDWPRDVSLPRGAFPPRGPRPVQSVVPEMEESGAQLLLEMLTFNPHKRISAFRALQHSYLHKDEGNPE

[14] = molecular target: 1-phosphatidylinositol 3-phosphate 5-kinase (Homo sapiens) (UniProt Q9Y2I7); settings: Compound concentration 1000.0 nM
[15] = molecular target: Receptor-type tyrosine-protein kinase FLT3 (Homo sapiens) (UniProt P36888); settings: Compound concentration 1000.0 nM
[16] = molecular target: Ribosomal protein S6 kinase alpha-5 (Homo sapiens) (UniProt O75582); settings: Compound concentration 1000.0 nM
[17] = molecular target: Serine/threonine-protein kinase Nek11 (Homo sapiens) (UniProt Q8NG66); settings: Compound concentration 1000.0 nM
[18] = tested on: Hepatocyte growth factor receptor (Homo sapiens), P08581 [M1250T]; settings: Compound concentration 1000.0 nM
[19] = molecular target: MAP/microtubule affinity-regulating kinase 3 (Homo sapiens) (UniProt P27448); settings: Compound concentration 1000.0 nM
[20] = molecular target: Ephrin type-A receptor 2 (Homo sapiens) (UniProt P29317); settings: Compound concentration 1000.0 nM
[21] = molecular target: Inhibitor of nuclear factor kappa-B kinase subunit epsilon (Homo sapiens) (UniProt Q14164); settings: Compound concentration 1000.0 nM
[22] = molecular target: Receptor-interacting serine/threonine-protein kinase 1 (Homo sapiens) (UniProt Q13546); settings: Compound concentration 1000.0 nM
[23] = molecular target: BDNF/NT-3 growth factors receptor (Homo sapiens) (UniProt Q16620); settings: Compound concentration 1000.0 nM
Chain of BDNF/NT-3 growth factors receptor (Homo sapiens) (Q16620 32-822 limits assumed): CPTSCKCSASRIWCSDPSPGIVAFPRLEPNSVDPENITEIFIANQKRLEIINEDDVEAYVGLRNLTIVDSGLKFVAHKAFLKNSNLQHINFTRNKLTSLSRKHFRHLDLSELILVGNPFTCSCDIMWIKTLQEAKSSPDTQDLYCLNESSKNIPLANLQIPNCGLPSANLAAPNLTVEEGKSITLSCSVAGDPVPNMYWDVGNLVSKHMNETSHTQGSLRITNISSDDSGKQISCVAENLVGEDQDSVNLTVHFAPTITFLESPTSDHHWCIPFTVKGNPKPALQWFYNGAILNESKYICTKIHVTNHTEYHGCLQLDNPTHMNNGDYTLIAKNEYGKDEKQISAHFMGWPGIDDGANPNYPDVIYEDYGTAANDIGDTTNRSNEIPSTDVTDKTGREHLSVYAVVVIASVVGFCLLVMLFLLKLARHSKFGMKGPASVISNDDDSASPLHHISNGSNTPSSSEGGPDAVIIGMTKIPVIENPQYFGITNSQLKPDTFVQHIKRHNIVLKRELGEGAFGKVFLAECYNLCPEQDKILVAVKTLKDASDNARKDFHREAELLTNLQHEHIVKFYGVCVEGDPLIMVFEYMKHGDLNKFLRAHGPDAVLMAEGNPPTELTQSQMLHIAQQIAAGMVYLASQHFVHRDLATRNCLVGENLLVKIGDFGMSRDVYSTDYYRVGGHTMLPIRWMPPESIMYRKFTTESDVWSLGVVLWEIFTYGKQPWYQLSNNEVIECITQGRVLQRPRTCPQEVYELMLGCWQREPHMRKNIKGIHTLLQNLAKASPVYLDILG

[24] = molecular target: Tyrosine-protein kinase receptor Tie-1 (Homo sapiens) (UniProt P35590); settings: Compound concentration 1000.0 nM
[25] = molecular target: Phosphatidylinositol 5-phosphate 4-kinase type-2 beta (Homo sapiens) (UniProt P78356); settings: Compound concentration 1000.0 nM
[26] = tested on: Tyrosine-protein kinase ABL1 (Homo sapiens), P00519 [M351T]; settings: Compound concentration 1000.0 nM
[27] = molecular target: Mitogen-activated protein kinase kinase kinase 12 (Homo sapiens) (UniProt Q12852); settings: Compound concentration 1000.0 nM
[28] = molecular target: Mitogen-activated protein kinase kinase kinase kinase 4 (Homo sapiens) (UniProt O95819); settings: Compound concentration 1000.0 nM
[29] = molecular target: Serine/threonine-protein kinase DCLK1 (Homo sapiens) (UniProt O15075); settings: Compound concentration 1000.0 nM
[30] = molecular target: Histamine H4 receptor (Homo sapiens) (UniProt Q9H3N8); settings: Compound concentration 10.0 uM
Chain of Histamine H4 receptor (Homo sapiens) (Q9H3N8 whole entry): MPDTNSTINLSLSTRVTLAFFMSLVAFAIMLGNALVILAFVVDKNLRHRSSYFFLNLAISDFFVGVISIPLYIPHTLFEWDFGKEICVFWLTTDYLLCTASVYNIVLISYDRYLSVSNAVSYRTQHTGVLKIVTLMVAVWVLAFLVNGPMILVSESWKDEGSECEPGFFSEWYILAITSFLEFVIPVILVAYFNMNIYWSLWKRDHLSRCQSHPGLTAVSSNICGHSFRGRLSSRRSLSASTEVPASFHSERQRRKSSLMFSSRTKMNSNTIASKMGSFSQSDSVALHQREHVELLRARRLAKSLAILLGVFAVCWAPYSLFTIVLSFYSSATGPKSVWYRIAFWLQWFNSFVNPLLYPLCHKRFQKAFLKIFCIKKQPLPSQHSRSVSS

[31] = molecular target: MAP kinase-activated protein kinase 5 (Homo sapiens) (UniProt Q8IW41); settings: Compound concentration 1000.0 nM
[32] = molecular target: Serine/threonine-protein kinase WNK2 (Homo sapiens) (UniProt Q9Y3S1); settings: Compound concentration 1000.0 nM
[33] = tested on: Epidermal growth factor receptor (Homo sapiens), P00533 [G719C]; settings: Compound concentration 1000.0 nM
[34] = molecular target: Ribosomal protein S6 kinase beta-1 (Homo sapiens) (UniProt P23443); settings: Compound concentration 1000.0 nM
[35] = tested on: Mast/stem cell growth factor receptor Kit (Homo sapiens), P10721 [V559D,T670I]; settings: Compound concentration 1000.0 nM
[36] = molecular target: Ribosomal protein S6 kinase alpha-2 (Homo sapiens) (UniProt Q15349); settings: Compound concentration 1000.0 nM
[37] = molecular target: Ribosomal protein S6 kinase alpha-6 (Homo sapiens) (UniProt Q9UK32); settings: Compound concentration 1000.0 nM
[38] = tested on: Phosphatidylinositol 4,5-bisphosphate 3-kinase catalytic subunit alpha isoform (Homo sapiens), P42336 [H1047L]; settings: Compound concentration 1000.0 nM
[39] = tested on: Receptor-type tyrosine-protein kinase FLT3 (Homo sapiens), P36888 [UNDEFINED MUTATION]; settings: Compound concentration 1000.0 nM; remark: listed apart in the source
[40] = molecular target: Serine/threonine-protein kinase LATS2 (Homo sapiens) (UniProt Q9NRM7); settings: Compound concentration 1000.0 nM
[41] = molecular target: 5-hydroxytryptamine receptor 6 (Homo sapiens) (UniProt P50406); settings: Compound concentration 10.0 uM
[42] = molecular target: Dual serine/threonine and tyrosine protein kinase (Homo sapiens) (UniProt Q6XUX3); settings: Compound concentration 1000.0 nM
[43] = molecular target: Ephrin type-A receptor 7 (Homo sapiens) (UniProt Q15375); settings: Compound concentration 1000.0 nM
Chain of Ephrin type-A receptor 7 (Homo sapiens) (Q15375 28-998 limits assumed): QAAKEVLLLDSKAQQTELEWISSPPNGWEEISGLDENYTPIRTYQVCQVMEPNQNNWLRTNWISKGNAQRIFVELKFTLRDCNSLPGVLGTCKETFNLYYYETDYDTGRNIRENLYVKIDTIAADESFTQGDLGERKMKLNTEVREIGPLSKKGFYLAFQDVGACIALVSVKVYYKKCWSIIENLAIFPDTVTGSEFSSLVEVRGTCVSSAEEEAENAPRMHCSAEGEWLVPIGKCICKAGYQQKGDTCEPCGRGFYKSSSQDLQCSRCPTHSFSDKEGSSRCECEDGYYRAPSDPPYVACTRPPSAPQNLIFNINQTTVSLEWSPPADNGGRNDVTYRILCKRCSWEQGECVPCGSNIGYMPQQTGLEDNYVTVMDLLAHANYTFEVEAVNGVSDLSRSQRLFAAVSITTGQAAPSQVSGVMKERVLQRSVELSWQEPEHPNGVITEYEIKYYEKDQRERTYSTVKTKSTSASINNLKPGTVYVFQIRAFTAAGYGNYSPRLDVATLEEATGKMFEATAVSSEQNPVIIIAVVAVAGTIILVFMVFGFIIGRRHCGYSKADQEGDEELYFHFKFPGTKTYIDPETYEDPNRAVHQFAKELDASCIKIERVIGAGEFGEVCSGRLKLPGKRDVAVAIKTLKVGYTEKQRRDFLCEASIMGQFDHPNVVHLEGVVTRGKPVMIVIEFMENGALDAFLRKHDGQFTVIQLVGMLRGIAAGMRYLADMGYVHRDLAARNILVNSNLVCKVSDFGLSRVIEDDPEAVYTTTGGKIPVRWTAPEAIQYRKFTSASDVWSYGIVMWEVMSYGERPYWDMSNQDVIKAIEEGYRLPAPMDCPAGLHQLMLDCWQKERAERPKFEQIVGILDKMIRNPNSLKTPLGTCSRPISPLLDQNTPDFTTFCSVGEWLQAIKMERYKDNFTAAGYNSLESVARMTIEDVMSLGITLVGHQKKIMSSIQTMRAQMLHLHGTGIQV

[44] = molecular target: Protein kinase C eta type (Homo sapiens) (UniProt P24723); settings: Compound concentration 1000.0 nM
Chain of Protein kinase C eta type (Homo sapiens) (P24723 whole entry): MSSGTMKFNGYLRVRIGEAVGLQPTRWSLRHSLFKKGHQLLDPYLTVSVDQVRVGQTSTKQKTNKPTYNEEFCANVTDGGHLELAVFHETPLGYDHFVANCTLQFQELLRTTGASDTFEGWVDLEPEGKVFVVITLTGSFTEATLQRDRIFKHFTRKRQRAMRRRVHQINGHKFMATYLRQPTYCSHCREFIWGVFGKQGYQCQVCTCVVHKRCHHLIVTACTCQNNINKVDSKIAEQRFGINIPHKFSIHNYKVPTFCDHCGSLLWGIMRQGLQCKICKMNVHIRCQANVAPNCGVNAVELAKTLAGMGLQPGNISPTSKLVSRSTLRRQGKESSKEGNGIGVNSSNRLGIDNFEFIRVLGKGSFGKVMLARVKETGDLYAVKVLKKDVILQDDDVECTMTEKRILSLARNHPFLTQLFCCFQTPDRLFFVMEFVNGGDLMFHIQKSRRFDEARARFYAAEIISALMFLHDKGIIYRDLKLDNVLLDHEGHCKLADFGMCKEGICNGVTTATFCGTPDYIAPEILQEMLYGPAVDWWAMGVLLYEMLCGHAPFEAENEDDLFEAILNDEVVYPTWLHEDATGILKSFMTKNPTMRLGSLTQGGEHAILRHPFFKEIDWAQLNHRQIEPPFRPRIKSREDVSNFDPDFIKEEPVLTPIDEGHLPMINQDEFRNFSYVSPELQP

Cc1cc(-n2nc(Cc3cc(F)cc(C(F)(F)F)c3)nc2C)ccc1C(N)=O [TP-024]
inactive: residual activity [1] 87% | residual activity [2] 100% | residual activity [3] 100% | residual activity [4] 92% | residual activity [5] 100% | residual activity [6] 100% | residual activity [7] 100% | residual activity [8] 83% | residual activity [9] 100% | residual activity [10] 100% | residual activity [11] 84% | residual activity [12] 100% | residual activity [13] 100% | residual activity [14] 70% | residual activity [15] 100% | residual activity [16] 97% | residual activity [17] 100% | residual activity [18] 80% | residual activity [19] 100% | residual activity [20] 100% | residual activity [21] 82% | residual activity [22] 90% | residual activity [23] 98% | residual activity [24] 100% | residual activity [25] 100% | residual activity [26] 100% | residual activity [27] 100% | residual activity [28] 100% | residual activity [29] 100% | inhibition [30] 1.73% | residual activity [31] 100% | residual activity [32] 100% | residual activity [33] 100% | residual activity [34] 100% | residual activity [35] 100% | residual activity [36] 100% | residual activity [37] 89% | residual activity [38] 87% | residual activity [39] 100% | residual activity [40] 100% | inhibition [41] 6.25% | residual activity [42] 97% | residual activity [43] 98% | residual activity [44] 97%

Cc1nc(Cc2cccc(C(F)(F)F)c2)sc1-c1ccc(C(N)=O)nc1 [TP-024n]
inactive: residual activity [1] 94% | residual activity [2] 100% | residual activity [3] 100% | residual activity [4] 100% | residual activity [5] 100% | residual activity [6] 100% | residual activity [7] 100% | residual activity [8] 64% | residual activity [9] 92% | residual activity [10] 95% | residual activity [11] 90% | residual activity [12] 100% | residual activity [13] 90% | residual activity [14] 75% | residual activity [15] 93% | residual activity [16] 100% | residual activity [17] 100% | residual activity [18] 92% | residual activity [19] 86% | residual activity [20] 68% | residual activity [21] 76% | residual activity [22] 91% | residual activity [23] 84% | residual activity [25] 88% | residual activity [26] 100% | residual activity [27] 100% | residual activity [28] 80% | residual activity [29] 81% | inhibition [30] 7.74% | residual activity [31] 100% | residual activity [32] 100% | residual activity [33] 94% | residual activity [34] 83% | residual activity [35] 91% | residual activity [36] 100% | residual activity [37] 91% | residual activity [38] 72% | residual activity [39] 100% | residual activity [40] 90% | inhibition [41] 2.42% | residual activity [42] 78% | residual activity [43] 100% | residual activity [44] 83%
active: residual activity [24] 28%
